ChEMBL document CHEMBL1133243, “Synthesis and antimicrobial activity of some isoindolin-1-ones derivatives” (2000)
Values after ≈ are worked out from the molar mass of the structure shown. Active and inactive are the calls of the source. The calls are words filed in the database; no cut-off is given here.

Key:
[1] = Antimicrobial activity against aspergillus sp and Candida albicans; Inactive; assay type: functional
Bacteria [2] = test: Antimicrobial activity against gram positive and gram negative bacteria; Active; assay type: functional, organism-based
Bacillus subtilis [3] = test: Compound was evaluated for minimum inhibitory concentration against Bacillus subtilis;Zero growth inhibition; assay type: functional, organism-based
Escherichia coli = test: Minimum inhibitory concentration against Escherichia coli.; assay type: functional
Pseudomonas aeruginosa = test: Minimum inhibitory concentration against Pseudomonas aeruginosa; assay type: functional
Staphylococcus aureus [4] = test: Compound was evaluated for minimum inhibitory concentration against Staphylococcus aureus;Zero growth inhibition; assay type: functional, organism-based
Kocuria rosea = test: Minimum inhibitory concentration against Micrococcus roseus; assay type: functional
Bacillus subtilis [5] = test: Minimum inhibitory concentration against Bacillus subtilis; assay type: functional
Staphylococcus aureus [6] = test: Compound was evaluated for minimum inhibitory concentration against Staphylococcus aureus; assay type: functional
Bacteria [7] = test: Antimicrobial activity against gram positive and gram negative bacteria; Inactive; assay type: functional, organism-based
Bacteria [8] = test: Compound tested for in vitro antimicrobial activity against gram positive and gram negative bacteria; Active; assay type: functional, organism-based
Staphylococcus aureus [9] = test: Minimum inhibitory concentration against Staphylococcus aureus; assay type: functional

SMILES | MIC (Bacillus subtilis [3]) | MIC (Escherichia coli) [µg/mL] | MIC (Pseudomonas aeruginosa) [µg/mL] | MIC (Staphylococcus aureus [4]) | MIC (Kocuria rosea) [µg/mL] | MIC (Bacillus subtilis [5]) [µg/mL] | MIC (Staphylococcus aureus [9]) [µg/mL] | Activity [1] | Activity (Bacteria [2]) | Inhibition (Staphylococcus aureus [6]) [%] | Activity (Bacteria [7]) | Activity (Bacteria [8])
Cc1ccc(N2Cc3ccccc3C2=O)cc1 |  |  |  |  |  |  |  | inactive |  |  | inactive | 
C[C@H](C(=O)O)N1Cc2ccccc2C1=O |  | 3600 (≈ 17.5 mM) | 3600 (≈ 17.5 mM) |  | 2610 (≈ 12.7 mM) | 328 (≈ 1.6 mM) | 1620 (≈ 7.89 mM) | inactive |  |  |  | Active
CC(c1ccccc1)N1Cc2ccccc2C1=O (stereo not drawn) |  |  |  |  |  |  |  | inactive |  |  | inactive | 
CC(C)C1COC2c3ccccc3C(=O)N21 (stereo not drawn) |  |  |  |  |  |  |  |  |  |  | inactive | 
O=C1c2ccccc2C2OCC(Cc3ccccc3)N12 (stereo not drawn) |  |  |  |  |  |  |  | inactive |  |  | inactive | 
O=C1c2ccccc2C2OCC(c3ccccc3)N12 (stereo not drawn) |  |  |  |  |  |  |  | inactive |  |  | inactive | 
COc1ccc(N2Cc3ccccc3C2=O)cc1 |  |  |  |  |  |  |  | inactive |  |  | inactive | 

Continued, in another order:

MIC (Bacillus subtilis [3]) | MIC (Escherichia coli) [µg/mL] | MIC (Pseudomonas aeruginosa) [µg/mL] | MIC (Staphylococcus aureus [4]) | MIC (Kocuria rosea) [µg/mL] | MIC (Bacillus subtilis [5]) [µg/mL] | MIC (Staphylococcus aureus [9]) [µg/mL] | SMILES | Activity [1] | Activity (Bacteria [2]) | Inhibition (Staphylococcus aureus [6]) [%] | Activity (Bacteria [7]) | Activity (Bacteria [8])
Zero growth inhibition | 2610 (≈ 10.9 mM) | 3600 (≈ 15 mM) | Zero growth inhibition | 1620 (≈ 6.77 mM) |  |  | O=C1c2ccccc2C(O)N1Cc1ccccc1 (stereo not drawn) | inactive | Active |  |  | 
 | 3600 (≈ 12.8 mM) | 3600 (≈ 12.8 mM) |  | 2610 (≈ 9.28 mM) | 1180 (≈ 4.18 mM) |  | O=C(O)[C@H](Cc1ccccc1)N1Cc2ccccc2C1=O | inactive | Active | 0 |  | 
 | 1620 (≈ 7.89 mM) | 3600 (≈ 17.5 mM) |  | 1620 (≈ 7.89 mM) | 729 (≈ 3.55 mM) | 1620 (≈ 7.89 mM) | C[C@@H](C(=O)O)N1Cc2ccccc2C1=O | inactive |  |  |  | Active
 | 1620 (≈ 6.06 mM) | 3600 (≈ 13.5 mM) |  | 729 (≈ 2.73 mM) | 529 (≈ 1.98 mM) |  | O=C(O)[C@H](c1ccccc1)N1Cc2ccccc2C1=O | inactive | Active | 0 |  | 
 | 1620 (≈ 6.55 mM) | 3600 (≈ 14.6 mM) |  | 1180 (≈ 4.75 mM) | 729 (≈ 2.95 mM) | 3600 (≈ 14.6 mM) | CCC(C)C(C(=O)O)N1Cc2ccccc2C1=O (stereo not drawn) | inactive | Active |  |  | 
 | 3600 (≈ 15.4 mM) | 3600 (≈ 15.4 mM) |  | 1620 (≈ 6.94 mM) | 1620 (≈ 6.94 mM) | 3600 (≈ 15.4 mM) | CC(C)[C@H](C(=O)O)N1Cc2ccccc2C1=O | inactive | Active |  |  | 
 | 729 (≈ 2.93 mM) | 1620 (≈ 6.5 mM) |  | 2610 (≈ 10.5 mM) | 147 (≈ 0.59 mM) | 3600 (≈ 14.4 mM) | O=C(O)C[C@@H](C(=O)O)N1Cc2ccccc2C1=O | inactive | Active |  |  | 
 | 1620 (≈ 6.94 mM) | 3600 (≈ 15.4 mM) |  | 1620 (≈ 6.94 mM) | 1620 (≈ 6.94 mM) | 3600 (≈ 15.4 mM) | CC(C)[C@@H](C(=O)O)N1Cc2ccccc2C1=O | inactive | Active |  |  | 
 | 1620 (≈ 7.32 mM) | 3600 (≈ 16.3 mM) |  | 2610 (≈ 11.8 mM) | 729 (≈ 3.3 mM) | 3600 (≈ 16.3 mM) | O=C(O)[C@H](CO)N1Cc2ccccc2C1=O | inactive | Active |  |  | 
 | 3600 (≈ 14.6 mM) | 3600 (≈ 14.6 mM) |  | 3600 (≈ 14.6 mM) | 729 (≈ 2.95 mM) | 3600 (≈ 14.6 mM) | CC(C)CC(C(=O)O)N1Cc2ccccc2C1=O (stereo not drawn) | inactive | Active |  |  | 
